The numbers were not newly measured in US20070141147A1, “SEQUENTIAL RELEASE PHARMACEUTICAL FORMULATIONS” (Auriga Laboratories, Inc., priority 2005, published 2007), which cites them from elsewhere.

Counter-ions that a name gives are not always drawn.

For data set [1] the following is noted: water and alcohol.
The conditions of data set [2]: in vivo.

With `CNCC(O)c1cccc(O)c1` (stereo in doubt) [Phenylephrine hydrochloride, (S)-3-hydroxy-[alpha][(methylamino)methylbenzenemethanol hydrochloride], the solubility result in data set [1] is on record as “freely soluble”. In the case of `COc1ccccc1OCC(O)CO` (stereo not drawn) [Guaifenesin, 3-(2-methoxyphenoxy)-1,2-propanediol], the solubility result in data set [1] was “soluble”. As for `C[N+]1(C)[C@@H]2C[C@@H](OC(=O)[C@H](CO)c3ccccc3)C[C@H]1[C@@H]1O[C@@H]12` [methscopolamine], in data set [2], the plasma half-life entry is recorded as “relatively short”.
